Experimental data: patent publication EP0093484A2, “Antibacterial monic acid derivatives” (BEECHAM GROUP PLC, priority 1982, dated 1983)
Values after ≈ are worked out from the molar mass of the structure shown. Like-named read-outs stand apart in the source and are kept apart here.

What was measured:
[1] = tested on: M. hyorhinis ATCC 23234; assay: Anti-mycoplasmal activity, MIC in Friis broth agarose; assay type: cell-based; settings: Friis broth solidified with 0.9% agarose, 6 days incubation at 37°C
[2] = tested on: M. suipneumoniae ATCC 25095; assay: as above; assay type: cell-based; settings: Friis broth solidified with 0.9% agarose, 6 days incubation at 37°C
[3] = tested on: Staph. aureus Russell; assay: Human bacteria, MIC by serial dilution in nutrient agar; assay type: cell-based; settings: nutrient agar with 5% chocolated horse blood, 18 hours at 37°C
[4] = tested on: P. mirabilis 889; assay: as above; assay type: cell-based; settings: nutrient agar with 5% chocolated horse blood, 18 hours at 37°C
[5] = tested on: M. suipneumoniae TAM 6N; assay: Anti-mycoplasmal activity, MIC in Friis broth agarose; assay type: cell-based; settings: Friis broth solidified with 0.9% agarose, 6 days incubation at 37°C
[6] = tested on: Past. multocida PA1; assay: Veterinary bacteria, MIC by two fold serial dilution in agar
Procedure: (§1) The activity of the compounds of the Examples against various organisms important in veterinary infections was determined using two fold serial dilutions in Diagnostic Sensitivity Test Agar inoculated with 10^4 organisms.

[7] = tested on: M. hyorhinis ATCC 25021; assay: Anti-mycoplasmal activity, MIC in Friis broth agarose; assay type: cell-based; settings: Friis broth solidified with 0.9% agarose, 6 days incubation at 37°C
[8] = tested on: Bacillus subtilis 6633; assay: Human bacteria, MIC by serial dilution in nutrient agar; assay type: cell-based; settings: nutrient agar with 5% chocolated horse blood, 18 hours at 37°C
[9] = tested on: M. suipneumoniae UCD 1; assay: Anti-mycoplasmal activity, MIC in Friis broth agarose; assay type: cell-based; settings: Friis broth solidified with 0.9% agarose, 6 days incubation at 37°C
[10] = tested on: M. suipneumoniae J2206/183b; assay: as above; assay type: cell-based; settings: Friis broth solidified with 0.9% agarose, 6 days incubation at 37°C
[11] = tested on: Pasteurella multocida 1633; assay: Human bacteria, MIC by serial dilution in nutrient agar; assay type: cell-based; settings: nutrient agar with 5% chocolated horse blood, 18 hours at 37°C
[12] = tested on: Staph. aureus Oxford; assay: as above; assay type: cell-based; settings: Staph. aureus Oxford (human panel), nutrient agar with 5% chocolated horse blood, 18 hours at 37°C
[13] = tested on: Corynebacterium pyogenes CY1; assay: Veterinary bacteria, MIC by two fold serial dilution in agar
Procedure: as §1

[14] = tested on: M. suipneumoniae NCTC 10110; assay: Anti-mycoplasmal activity, MIC in Friis broth agarose; assay type: cell-based; settings: Friis broth solidified with 0.9% agarose, 6 days incubation at 37°C
[15] = tested on: S. typhimurium S18; assay: Veterinary bacteria, MIC by two fold serial dilution in agar
Procedure: as §1

[16] = tested on: M. suipneumoniae HK(2); assay: Anti-mycoplasmal activity, MIC in Friis broth agarose; assay type: cell-based; settings: Friis broth solidified with 0.9% agarose, 6 days incubation at 37°C
[17] = tested on: M. bovigenitalium ATCC 14173; assay: as above; assay type: cell-based; settings: Friis broth solidified with 0.9% agarose, 6 days incubation at 37°C
[18] = tested on: E. coli NCTC 10418; assay: Veterinary bacteria, MIC by two fold serial dilution in agar
Procedure: as §1

[19] = tested on: M. suipneumoniae NB12; assay: Anti-mycoplasmal activity, MIC in Friis broth agarose; assay type: cell-based; settings: Friis broth solidified with 0.9% agarose, 6 days incubation at 37°C
[20] = tested on: Strep. pyogenes R80/421-A; assay: Human bacteria, MIC by serial dilution in nutrient agar; assay type: cell-based; settings: nutrient agar with 5% chocolated horse blood, 18 hours at 37°C
[21] = Mesomycoplasma hyorhinis, ATCC23234, 144 h, read-out: MIC
[22] = Mesomycoplasma hyopneumoniae, ATCC25095, 144 h, read-out: MIC
[23] = Staphylococcus aureus, read-out: MIC
[24] = Proteus mirabilis, read-out: MIC
[25] = Mesomycoplasma hyopneumoniae, TAM6N, 144 h, read-out: MIC
[26] = Pasteurella multocida, PA1, 18 h
[27] = Mesomycoplasma hyorhinis, ATCC25021, 144 h, read-out: MIC
[28] = Mesomycoplasma hyopneumoniae, UCD1, 144 h, read-out: MIC
[29] = Mesomycoplasma hyopneumoniae, 144 h, read-out: MIC
[30] = Mesomycoplasma hyopneumoniae, NCTC10110, 144 h, read-out: MIC
[31] = Salmonella enterica, TYPHIMURIUM, 18 h
[32] = Escherichia coli, NCTC10418, 18 h

Row | Compound | MIC [1, 21] [µg/mL] | MIC [2, 22] [µg/mL] | MIC [3, 23] [µg/mL] | MIC [4, 24] [µg/mL] | MIC [5, 25] [µg/mL] | MIC [6, 26] [µg/mL] | MIC [7, 27] [µg/mL] | MIC ([8]; read-out: MIC) [µg/mL] | MIC [9, 28] [µg/mL] | MIC [10, 29] [µg/mL] | MIC ([11]; read-out: MIC) [µg/mL] | MIC [12, 23] [µg/mL] | MIC ([13]; CY1, 18 h) [µg/mL] | MIC [14, 30] [µg/mL] | MIC [15, 31] [µg/mL] | MIC [16, 29] [µg/mL] | MIC ([17]; 144 h, read-out: MIC) [µg/mL] | MIC [18, 32] [µg/mL] | MIC [19, 29] [µg/mL] | also measured
1 | CC(=CC(=O)OCc1cccc([S+](C)[O-])c1)CC1OCC(CC2OC2C(C)C(C)O)C(O)C1O (stereo not drawn) [Example 6, m-Methylsulfinylbenzyl monate A] | 5 (≈ 10.1 µM) | 5 (≈ 10.1 µM) | 12.5 (≈ 25.2 µM) | > 100 | 10 (≈ 20.1 µM) | 80 (≈ 161 µM) | 5 (≈ 10.1 µM) | 12.5 (≈ 25.2 µM) | 10 (≈ 20.1 µM) | 10 (≈ 20.1 µM) | 25 (≈ 50.3 µM) | 2.5 (≈ 5.03 µM) | > 80 | 10 (≈ 20.1 µM) | > 80 | 10 (≈ 20.1 µM) | 0.25 (≈ 0.503 µM) | > 80 | 5 (≈ 10.1 µM) | 
2 | CC(=CC(=O)OCc1cccc(S(C)(=O)=O)c1)CC1OCC(CC2OC2C(C)C(C)O)C(O)C1O (stereo not drawn) [Example 7, m-Methylsulfonylbenzyl monate A] | 0.5 (≈ 0.975 µM) | 0.5 (≈ 0.975 µM) | 5 (≈ 9.75 µM) | > 100 | 1 (≈ 1.95 µM) | 2.5 (≈ 4.88 µM) | 0.5 (≈ 0.975 µM) | 2.5 (≈ 4.88 µM) | 1 (≈ 1.95 µM) | 1 (≈ 1.95 µM) | 2.5 (≈ 4.88 µM) | 2.5 (≈ 4.88 µM) | > 80 | 1 (≈ 1.95 µM) | > 80 | 1 (≈ 1.95 µM) | 0.05 (≈ 0.0975 µM) | > 80 | 0.5 (≈ 0.975 µM) | 
3 | CC(=CC(=O)OC(C)c1ccc(S(C)(=O)=O)cc1)CC1OCC(CC2OC2C(C)C(C)O)C(O)C1O (stereo not drawn) [Example 9, 1-(p-Methylsulfonylphenyl)ethyl monate A] | 0.5 (≈ 0.949 µM) | 0.5 (≈ 0.949 µM) | 16 (≈ 30.4 µM) | > 128 | 1 (≈ 1.9 µM) | 5 (≈ 9.49 µM) | 0.5 (≈ 0.949 µM) | 1 (≈ 1.9 µM) | 1 (≈ 1.9 µM) | 1 (≈ 1.9 µM) | 8 (≈ 15.2 µM) | 4 (≈ 7.6 µM) | > 80 | 1 (≈ 1.9 µM) | > 80 | 1 (≈ 1.9 µM) | 0.05 (≈ 0.0949 µM) | > 80 | 1 (≈ 1.9 µM) | MIC ([20]; Streptococcus pyogenes, read-out: MIC): 1 µg/mL (≈ 1.9 µM)
4 | m-Methylthiobenzyl monate A [Example 5] |  |  |  |  |  |  |  |  |  |  |  |  |  |  |  |  |  |  |  | MIC [20]: 0.1 µg/mL; MIC [1]: 0.25 µg/mL; MIC [2]: 0.5 µg/mL; MIC [3]: 1.0 µg/mL; MIC [4]: >100 µg/mL; MIC [5]: 0.5 µg/mL; MIC ([6]; Past. multocida PA1, Diagnostic Sensitivity Test Agar, 18 hours at 37°C): 2.5 µg/mL; MIC [7]: 0.25 µg/mL; MIC [8]: 0.1 µg/mL; MIC [9]: 0.5 µg/mL; MIC [10]: 0.5 µg/mL; MIC [11]: 10 µg/mL; MIC [12]: 0.5 µg/mL; MIC ([13]; Corynebacterium pyogenes CY1, Diagnostic Sensitivity Test Agar, 18 hours at 37°C): >80 µg/mL; MIC [14]: 0.5 µg/mL; MIC ([15]; S. typhimurium S18, Diagnostic Sensitivity Test Agar, 18 hours at 37°C): >80 µg/mL; MIC [16]: 0.5 µg/mL; MIC [17]: 0.025 µg/mL; MIC ([18]; E. coli NCTC 10418 (veterinary panel), Diagnostic Sensitivity Test Agar, 18 hours at 37°C): >80 µg/mL; MIC [19]: 0.5 µg/mL
